Laboratory results reported in US20230382924A1, “MODULATORS OF CYSTIC FIBROSIS TRANSMEMBRANE CONDUCTANCE REGULATOR” (VERTEX PHARMACEUTICALS INCORPORATED, priority 2020, published 2023).
Like-named read-outs stand apart in the source and are kept apart here.

Molecular target: CFTR (Homo sapiens, UniProt P13569)
Assay: Membrane Potential Dye, Enteroid Assay A
Type: cell-based
Conditions: for EC50: read-out: Ent. A EC50
Summary of the method: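 Enteroid cells were loaded with methyl oxonol membrane potential dye (plus CaCCinh-A01 and Chicago Sky Blue) for 25 min at room temperature. Chloride transport was started by switching to chloride-free gluconate stimulation solution, with fluorescence read for 15 min. Activity was expressed as % of a triple-combination CFTR modulator control (3 μM, 3 μM, 300 nM acute).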

Sequence of CFTR (P13569 with tags, fused parts or gaps DEL508-508): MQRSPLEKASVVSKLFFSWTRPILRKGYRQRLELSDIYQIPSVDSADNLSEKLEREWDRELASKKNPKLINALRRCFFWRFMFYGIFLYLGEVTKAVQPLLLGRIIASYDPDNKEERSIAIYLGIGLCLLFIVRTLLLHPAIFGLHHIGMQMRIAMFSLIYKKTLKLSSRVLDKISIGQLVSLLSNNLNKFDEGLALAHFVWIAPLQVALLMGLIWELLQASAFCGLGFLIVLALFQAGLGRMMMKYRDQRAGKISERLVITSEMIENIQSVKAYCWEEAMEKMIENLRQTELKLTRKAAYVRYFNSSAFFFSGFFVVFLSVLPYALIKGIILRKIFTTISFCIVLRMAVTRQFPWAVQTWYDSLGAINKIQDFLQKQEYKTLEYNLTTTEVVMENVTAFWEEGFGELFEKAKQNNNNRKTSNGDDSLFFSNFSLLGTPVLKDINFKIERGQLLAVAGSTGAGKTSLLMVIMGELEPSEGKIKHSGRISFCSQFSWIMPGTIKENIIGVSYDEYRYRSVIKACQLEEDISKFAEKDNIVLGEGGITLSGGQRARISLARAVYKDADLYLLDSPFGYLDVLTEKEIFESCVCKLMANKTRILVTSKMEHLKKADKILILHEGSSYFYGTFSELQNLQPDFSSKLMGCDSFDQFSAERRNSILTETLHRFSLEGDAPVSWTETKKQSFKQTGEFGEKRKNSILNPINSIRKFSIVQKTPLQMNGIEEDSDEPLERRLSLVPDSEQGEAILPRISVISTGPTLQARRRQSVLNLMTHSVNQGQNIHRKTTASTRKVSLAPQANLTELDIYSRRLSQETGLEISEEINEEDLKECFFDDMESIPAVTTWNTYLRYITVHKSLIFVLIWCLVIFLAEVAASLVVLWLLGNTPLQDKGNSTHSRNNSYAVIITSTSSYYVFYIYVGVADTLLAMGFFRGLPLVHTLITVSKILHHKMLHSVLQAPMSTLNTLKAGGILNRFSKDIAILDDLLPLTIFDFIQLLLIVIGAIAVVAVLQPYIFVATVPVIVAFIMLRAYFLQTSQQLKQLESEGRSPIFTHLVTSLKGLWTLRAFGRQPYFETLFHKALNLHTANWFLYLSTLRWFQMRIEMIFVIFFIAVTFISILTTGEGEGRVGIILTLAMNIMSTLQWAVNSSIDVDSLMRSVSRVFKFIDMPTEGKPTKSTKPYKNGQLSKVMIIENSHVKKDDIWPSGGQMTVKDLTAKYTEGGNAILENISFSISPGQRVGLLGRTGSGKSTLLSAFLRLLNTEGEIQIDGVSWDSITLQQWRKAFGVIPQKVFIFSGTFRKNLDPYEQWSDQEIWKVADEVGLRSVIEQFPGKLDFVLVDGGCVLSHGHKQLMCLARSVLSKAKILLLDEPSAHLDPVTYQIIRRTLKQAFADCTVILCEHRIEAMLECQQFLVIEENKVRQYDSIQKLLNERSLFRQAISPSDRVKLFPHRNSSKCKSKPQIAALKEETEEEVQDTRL

SMILES	Ent. A Max Activity (Table 9)	EC50 (Table 9) [nM]	Ent. A Max Activity (Table 8)	other results
Cc1cccc(C)c1-c1cc2nc(n1)NS(=O)(=O)c1cccc(c1)C(=O)NCC(c1ccc(C3CCC3)cc1)O2 (centres unmarked) [Compound 12, 10-(4-Cyclobutylphenyl)-6-(2,6-dimethylphenyl)-2,2-dioxo-9-oxa-2λ^6-thia-3,5,12,19-tetrazatricyclo[12.3.1.14,8]nonadeca-1(18),4(19),5,7,14,16-hexaen-13-one]	+++ (+++ is >60%)	< 1000	–	–
Cc1cccc(C)c1-c1cc2nc(n1)NS(=O)(=O)c1cccc(c1)C(=O)NCC(c1ccc3ccccc3c1)O2 (centres unmarked) [Compound 253]	–	–	+++ (+++ is >60%)	EC50 (Table 8): < 1000 nM
Cc1cccc(Cc2ccccc2)c1-c1cc2nc(n1)NS(=O)(=O)c1cccc(c1)C(=O)N[C@H](CC(C)C)CO2 [Compound 168]	+++ (+++ is >60%)	< 1000	–	–
Cc1cccc(C)c1-c1cc2nc(n1)NS(=O)(=O)c1cccc(c1)C(=O)N[C@H](CC1CCCCC1)[C@@H](C1CC1)O2 [Compound 131]	+++ (+++ is >60%)	< 1000	–	–
Cc1cccc(C)c1-c1cc2nc(n1)NS(=O)(=O)c1cc(cc(C3CC3)c1)C(=O)N[C@H](CC(C)C)CO2 [Compound 136]	–	–	+ (+ is <30%)	–
Cc1cccc(C)c1-c1cc2nc(n1)NS(=O)(=O)c1cccc(c1)C(=O)NCC(C1CCC(C)(C)CC1)O2 (centres unmarked) [Compound 283]	+++ (+++ is >60%)	< 1000	–	–
CC(C)C[C@@H]1COc2cc(-c3ncccn3)nc(n2)NS(=O)(=O)c2cccc(c2)C(=O)N1 [Compound 178]	+ (+ is <30%)	–	–	–
Cc1cccc(C)c1-c1cc2nc(n1)NS(=O)(=O)c1cc(n(C)n1)C(=O)N[C@@H](CC1CCCCC1)CO2 [Compound 359]	–	–	+ (+ is <30%)	–
Cc1cccc(C)c1-c1cc2nc(n1)NS(=O)(=O)c1cccc(c1)C(=O)NCC(CN1CCCCC1)O2 (centres unmarked) [Compound 410]	–	–	–	EC50 (Table 8): 3000 to 30000 nM
Cc1cccc(C)c1-c1cc2nc(n1)NS(=O)(=O)c1cccc(c1)C(=O)NCC1(CCN(C(=O)c3cc4ccc(OC(F)(F)F)cc4[nH]3)CC1)CO2 [Compound 84, 6-(2,6-Dimethylphenyl)-2,2-dioxo-1′-[6-(trifluoromethoxy)-1H-indole-2-carbonyl]spiro[9-oxa-2λ^6-thia-3,5,13,20-tetrazatricyclo[13.3.1.14,8]icosa-1(19),4(20),5,7,15,17-hexaene-11,4′-piperidine]-14-one]	–	–	–	Ent. A Max Activity (Enteroid Assay A): ++ (++ is 30-60%); EC50 (Enteroid Assay A): < 1000 nM
CC(C)C[C@@H]1COc2cc(-n3nccc3C(C)C)nc(n2)NS(=O)(=O)c2cccc(c2)C(=O)N1 [Compound 307]	–	–	+ (+ is <30%)	–
Cc1ccccc1[C@@H]1Oc2cc(-c3c(C)cccc3C)nc(n2)NS(=O)(=O)c2cccc(c2)C(=O)N[C@@H]1CC(C)C [Compound 162]	–	–	–	EC50 (Enteroid Assay A): < 1000 nM
Cc1cccc(C)c1-c1cc2nc(n1)NS(=O)(=O)c1cccc(c1)C(=O)NCC(c1ccc(C#N)cc1)O2 (centres unmarked) [Compound 250]	–	–	+++ (+++ is >60%)	EC50 (Table 8): < 1000 nM
Cc1cccc(C)c1-c1cc2nc(n1)NS(=O)(=O)c1cccc(c1)C(=O)NCC1(CCN(Cc3ccc(NC(=O)OC(C)(C)C)nc3)CC1)CO2 [Compound 433]	–	–	–	Ent. A Max Activity (Enteroid Assay A): ++ (++ is 30-60%); EC50 (Enteroid Assay A): 3000 to 30000 nM
Cc1cccc(C)c1-c1cc2nc(n1)NS(=O)(=O)c1cccc(c1)C(=O)NC1(CCN(C3CC4(CC4)C3)CC1)CO2 [Compound 174]	+++ (+++ is >60%)	1000 to 3000	–	–
Cc1cccc(C)c1-c1cc2nc(n1)NS(=O)(=O)c1cccc(c1)C(=O)NCC(c1ccc3c(c1)OCCO3)O2 (centres unmarked) [Compound 116]	–	–	+++ (+++ is >60%)	EC50 (Table 8): < 1000 nM
Cc1cccc(C)c1-c1cc2nc(n1)NS(=O)(=O)c1cccc(c1)C(=O)N[C@H](CC(C)C)[C@H](C)O2 [Compound 235]	–	–	+++ (+++ is >60%)	EC50 (Table 8): < 1000 nM
Cc1cccc(C)c1-c1cc2nc(n1)NS(=O)(=O)c1cccc(c1)C(=O)N[C@@H](CC(C)C)CCO2 [Compound 224]	++ (++ is 30-60%)	1000 to 3000	–	–
COCCOc1ccc(C2CNC(=O)c3cccc(c3)S(=O)(=O)Nc3nc(cc(-c4c(C)cccc4C)n3)O2)cc1 (centres unmarked) [Compound 120]	–	–	+ (+ is <30%)	–

SMILES	Ent. A Max Activity (Table 9)	EC50 (Table 9) [nM]	Ent. A Max Activity (Table 8)	other results
Cc1cccc(C)c1-c1cc2nc(n1)NS(=O)(=O)c1cccc(c1)C(=O)NCC(c1ccc(CC3(C(F)(F)F)CC3)cc1)O2 (centres unmarked) [Compound 147]	+++ (+++ is >60%)	< 1000	–	–
CCC[C@H]1NC(=O)c2cccc(c2)S(=O)(=O)Nc2nc(cc(-c3c(C)cccc3C)n2)O[C@H]1c1ccc(C(C)(C)C)cc1 [Compound 226]	+++ (+++ is >60%)	< 1000	–	–
Cc1cccc(C)c1-c1cc2nc(n1)NS(=O)(=O)c1cccc(c1)C(=O)N[C@@H](CC13CC4CC(CC(C4)C1)C3)CO2 (single isomer, unassigned) [Compound 111, 11-(1-adamantylmethyl)-6-(2,6-dimethylphenyl)-2,2-dioxo-9-oxa-2λ^6-thia-3,5,12,19-tetrazatricyclo[12.3.1.14,8]nonadeca-1(18),4(19),5,7,14,16-hexaen-13-one]	++ (++ is 30-60%)	< 1000	–	–
Cc1cccc(C)c1-c1cc2nc(n1)NS(=O)(=O)c1cccc(c1)C(=O)N[C@@H](CCC(F)(F)F)CO2 (stereo in doubt) [Compound 189]	–	–	+ (+ is <30%)	EC50 (Table 8): 1000 to 3000 nM
COc1cc(Cc2cccc(C)c2-c2cc3nc(n2)NS(=O)(=O)c2cccc(c2)C(=O)N[C@H](CC(C)C)CO3)cc(OC)c1 [Compound 167]	+++ (+++ is >60%)	< 1000	–	–
Cc1cccc(C)c1-c1cc2nc(n1)NS(=O)(=O)c1cccc(c1)C(=O)NC1CC(CN(CCC(C)(C)C)C1)O2 (single isomer, unassigned) [Compound 80, 5-(3,3-Dimethylbutyl)-19-(2,6-dimethylphenyl)-2-oxa-15λ^6-thia-5,8,16,18,21-pentaazatetracyclo[15.3.1.13,7.110,14]tricosa-1(20),10,12,14(22),17(21),18-hexaene-9,15,15-trione]	–	–	–	Ent. A Max Activity (Enteroid Assay A): ++ (++ is 30-60%); EC50 (Enteroid Assay A): 1000 to 3000 nM
Cc1cccc(C)c1-c1cc2nc(n1)NS(=O)(=O)c1cccc(c1)C(=O)NC[C@@H](c1ccc(C3CC3)cc1)O2 [Compound 261]	++ (++ is 30-60%)	1000 to 3000	–	–
Cc1cccc(C)c1-c1cc2nc(n1)NS(=O)(=O)c1cccc(c1)C(=O)NCc1cccc(c1)O2 [Compound 197]	–	–	–	Ent. A Max Activity (Enteroid Assay A): ++ (++ is 30-60%); EC50 (Enteroid Assay A): 3000 to 30000 nM
Cc1cccc(C)c1-c1cc2nc(n1)NS(=O)(=O)[C@H]1CCCN(C1)C(=O)N[C@H](CC1CCCCC1)CO2 (stereo in doubt) [Compound 159]	–	–	+ (+ is <30%)	–
Cc1cccc(C)c1-c1cc2nc(n1)NS(=O)(=O)c1cccc(c1)C(=O)NC(C(=O)NC1CCCCC1)CO2 (centres unmarked) [Compound 237]	–	–	+ (+ is <30%)	–
COc1cc(C)c(CN2CCC3(CC2)CNC(=O)c2cccc(c2)S(=O)(=O)Nc2nc(cc(-c4c(C)cccc4C)n2)OC3)cc1C [Compound 438]	–	–	–	Ent. A Max Activity (Enteroid Assay A): ++ (++ is 30-60%); EC50 (Enteroid Assay A): 1000 to 3000 nM
Cc1cccc(C)c1-c1cc2nc(n1)NS(=O)(=O)c1cccc(c1)C(=O)N[C@@H](C)[C@H](c1ccc(C(C)(C)C)cc1)O2 [Compound 228]	+ (+ is <30%)	< 1000	–	–
CC(C)CCc1ccccc1-c1cc2nc(n1)NS(=O)(=O)c1cccc(c1)C(=O)N[C@H](CC(C)C)CO2 [Compound 104, (11R)-6-[2-(3-Methylbutyl)phenyl]-11-(2-methylpropyl)-9-oxa-2λ^6-thia-3,5,12,19-tetraazatricyclo[12.3.1.14,8]nonadeca-1(17),4,6,8(19),14(18),15-hexaene-2,2,13-trione]	–	–	–	Ent. A Max Activity (Enteroid Assay A): ++ (++ is 30-60%); EC50 (Enteroid Assay A): < 1000 nM
Cc1cccc(C)c1-c1cc2nc(n1)NS(=O)(=O)c1cccc(c1)C(=O)NCC1(CCCCC1)CO2 [Compound 205]	–	–	–	Ent. A Max Activity (Enteroid Assay A): +++ (+++ is >600%); EC50 (Enteroid Assay A): < 1000 nM
Cc1cccc(C)c1-c1cc2nc(n1)NS(=O)(=O)c1cccc(c1)C(=O)NCCCC(c1ccc(C(C)(C)C)cc1)O2 (centres unmarked) [Compound 54, 10-(4-tert-butylphenyl)-6-(2,6-dimethylphenyl)-2,2-dioxo-9-oxa-2λ^6-thia-3,5,14,21-tetrazatricyclo[14.3.1.14,8]henicosa-1(20),4(21),5,7,16,18-hexaen-15-one]	+++ (+++ is >60%)	< 1000	–	–
CCC[C@H](NC(=O)OC(C)(C)C)C(=O)N1CCC2(CC1)CNC(=O)c1cccc(c1)S(=O)(=O)Nc1nc(cc(-c3c(C)cccc3C)n1)OC2 [Compound 469]	–	–	–	Ent. A Max Activity (Enteroid Assay A): ++ (++ is 30-60%); EC50 (Enteroid Assay A): 3000 to 30000 nM
Cc1cccc(C)c1-c1cc2nc(n1)NS(=O)(=O)c1cccc(c1)C(=O)NCC(c1ccc(C(C)C)cc1)O2 (centres unmarked) [Compound 275]	–	–	–	EC50 (Table 8): < 1000 nM
Cc1cccc(C)c1-c1cc2nc(n1)NS(=O)(=O)c1cccc(c1)C(=O)NC[C@@H](c1ccccn1)O2 [Compound 233]	–	–	+ (+ is <30%)	–
Cc1cccc(C)c1-c1cc2nc(n1)NS(=O)(=O)c1cccc(c1)C(=O)NC1(CCN(C(C)C)CC1)CO2 [Compound 175]	+ (+ is <30%)	3000 to 30000	–	–
